Legend:
[1] = target: GDP-bound KRAS wild-type protein (Homo sapiens, UniProt P01116); assay: Binding to KRAS by surface plasmon resonance (SPR), dissociation constant KD; conditions: Single Cycle Kinetics, 1:1 binding model
Outline: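 Affinity is measured by surface plasmon resonance at 30°C against captured, GDP-loaded RAS carrying a biotinylated Avi tag. Compounds are titrated by single-cycle kinetics, and KD comes from a 1:1 fit.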

[2] = target: GDP-bound NRAS wild-type protein (Homo sapiens, UniProt P01111); assay: Binding to NRAS by surface plasmon resonance (SPR), KD and KD ratio to KRAS; conditions: ratio of KD with respect to GDP-bound NRAS wild-type protein to KD with respect to KRAS
Outline: (§1)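 Measured at 30°C: SPR with GDP-loaded, E. coli-expressed biotin-Avi RAS captured (~100–300 RU), ascending 75 s compound injections, HBS pH 7.4 with GDP, MgCl2, 4% DMSO. KD from 1:1 fit.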

HRAS wild-type protein = HRAS wild-type protein (Homo sapiens, UniProt P01112); assay: Binding to HRAS by surface plasmon resonance (SPR), KD and KD ratio to KRAS; conditions: ratio of KD with respect to HRAS wild-type protein to KD with respect to KRAS
Outline: as §1

[3] = system: human lung cancer strain NCI-H441; assay: NCI-H441 cell proliferation inhibitory activity (CellTiter-Glo, 4 days); format: cell-based; conditions: 50% proliferation inhibitory concentration, four days, read-out: NCl-H441 IC50
Protocol: A test compound was dispensed into a U-bottom 384-well plate as 40 nL serially diluted dimethyl sulfoxide solutions using a liquid handler Echo (LABCYTE). […] This cell suspension was dispensed in an amount of 40 µL per well into a plate containing the test compound, and cultured at 37°C in a 5% carbon dioxide gas incubator. Four days later, 20 µL of CellTiter-Glo (registered trademark) (Promega) was added to each well and […] was measured. […]

Sequence of HRAS wild-type protein (P01112 whole entry): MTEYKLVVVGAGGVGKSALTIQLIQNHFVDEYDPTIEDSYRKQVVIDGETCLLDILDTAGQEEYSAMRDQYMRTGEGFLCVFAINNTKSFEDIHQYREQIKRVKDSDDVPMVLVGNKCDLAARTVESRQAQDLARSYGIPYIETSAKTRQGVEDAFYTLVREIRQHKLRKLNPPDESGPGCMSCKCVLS
Sequence of GDP-bound KRAS wild-type protein (P01116 1-188 isoform P01116-2): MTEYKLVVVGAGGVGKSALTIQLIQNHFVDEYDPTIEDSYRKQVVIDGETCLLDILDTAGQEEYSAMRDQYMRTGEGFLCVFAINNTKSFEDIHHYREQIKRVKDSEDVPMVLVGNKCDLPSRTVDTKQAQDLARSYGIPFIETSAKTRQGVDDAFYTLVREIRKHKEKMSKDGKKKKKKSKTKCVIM
Sequence of GDP-bound NRAS wild-type protein (P01111 whole entry): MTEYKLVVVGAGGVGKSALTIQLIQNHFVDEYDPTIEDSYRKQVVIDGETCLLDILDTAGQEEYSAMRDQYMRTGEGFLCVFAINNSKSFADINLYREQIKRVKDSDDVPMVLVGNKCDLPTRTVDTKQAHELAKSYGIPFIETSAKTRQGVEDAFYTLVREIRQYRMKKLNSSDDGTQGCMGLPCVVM

Compound	Kd [1]	NRAS /KRAS [2]	HRAS /KRAS (HRAS wild-type protein)	IC50 [3]
CC[C@H](C)[C@@H]1NC(=O)[C@H](CC)N(C)C(=O)C[C@@H](C(=O)N(C)C)N(C)C(=O)[C@H](C2CCCC2)N(C)C(=O)C2(CCC2)NC(=O)[C@@H]2CCCN2C(=O)[C@H](CCc2cc(F)c(C(F)(F)F)c(F)c2)NC(=O)CN(C)C(=O)[C@H](Cc2ccc(C(F)(F)F)cc2)N2CC/C=C\C[C@@H](C2=O)N(C)C(=O)CN(C)C1=O [PP1135]	0.094 nM	A (a compound having 10 or more and less than 20 is denoted as A)	A (a compound having 10 or more and less than 20 is denoted as A)	43.9 nM
CC[C@H](C)[C@@H]1NC(=O)[C@H](CC)N(C)C(=O)C[C@@H](C(=O)N(C)C)N(C)C(=O)[C@H](C2CCCC2)N(C)C(=O)C2(CCC2)NC(=O)[C@@H]2CCN2C(=O)[C@H](CCc2cc(F)c(C(F)(F)F)c(F)c2)NC(=O)CN(C)C(=O)[C@H](Cc2ccc(C(F)(F)F)cc2)N2CC/C=C\C[C@@H](C2=O)N(C)C(=O)CN(C)C1=O [PP1139]	0.43 nM	A (a compound having 10 or more and less than 20 is denoted as A)	A (a compound having 10 or more and less than 20 is denoted as A)	297 nM
CC[C@H](C)[C@@H]1NC(=O)[C@H](CC)N(C)C(=O)C[C@@H](C(=O)N(C)C)N(C)C(=O)[C@H](C2CCCC2)N(C)C(=O)C2(CCC2)NC(=O)[C@H](C)NC(=O)[C@H](CCc2cc(F)c(C(F)(F)F)c(F)c2)NC(=O)CN(C)C(=O)[C@H](Cc2ccc(C(F)(F)F)cc2)N2CC/C=C\C[C@@H](C2=O)N(C)C(=O)CN(C)C1=O [PP1140]	0.15 nM	A (a compound having 10 or more and less than 20 is denoted as A)	A (a compound having 10 or more and less than 20 is denoted as A)	1780 nM
CC[C@H](C)[C@@H]1NC(=O)[C@H](CC)N(C)C(=O)C[C@@H](C(=O)N(C)C)N(C)C(=O)[C@H](C2CCCC2)N(C)C(=O)C2(CCC2)NC(=O)CN(CC)C(=O)[C@H](CCc2cc(F)c(C(F)(F)F)c(F)c2)NC(=O)CN(C)C(=O)[C@H](Cc2ccc(C(F)(F)F)cc2)N2CC/C=C\C[C@@H](C2=O)N(C)C(=O)CN(C)C1=O [PP1143]	0.17 nM	A (a compound having 10 or more and less than 20 is denoted as A)	A (a compound having 10 or more and less than 20 is denoted as A)	75.3 nM
CC[C@H](C)[C@@H]1NC(=O)[C@H](CC)N(C)C(=O)C[C@@H](C(=O)N(C)C)N(C)C(=O)[C@H](C2CCCC2)N(C)C(=O)C2(CCC2)NC(=O)[C@H](C)N(C)C(=O)[C@H](CCc2cc(F)c(C(F)(F)F)c(F)c2)NC(=O)CN(C)C(=O)[C@H](Cc2ccc(C(F)(F)F)cc2)N2CC/C=C\C[C@@H](C2=O)N(C)C(=O)CN(C)C1=O [PP1146]	0.32 nM	A (a compound having 10 or more and less than 20 is denoted as A)	B (a compound having 3 or more and less than 10 is denoted as B)	202 nM
CCCC[C@H]1C(=O)NC2(CCC2)C(=O)N(C)[C@@H](C2CCCC2)C(=O)N(C)[C@H](C(=O)N(C)C)CC(=O)N(C)[C@@H](CC)C(=O)N[C@@H]([C@@H](C)CC)C(=O)N(C)CC(=O)N(C)[C@H]2C/C=C\CCN(C2=O)[C@@H](Cc2ccc(C(F)(F)F)cc2)C(=O)N(C)CC(=O)N[C@@H](CCc2cc(F)c(C(F)(F)F)c(F)c2)C(=O)N1C [PP1150]	0.17 nM	AA (a compound having 20 or more is denoted as AA)	A (a compound having 10 or more and less than 20 is denoted as A)	42.7 nM
CCO[C@@H]1C[C@H]2C(=O)NC3(CCC3)C(=O)N(C)[C@@H](C3CCCC3)C(=O)N(C)[C@H](C(=O)N(C)C)CC(=O)N(C)[C@@H](Cc3ccccc3C#N)C(=O)N[C@@H]([C@@H](C)CC)C(=O)N(C)CC(=O)N(C)[C@H]3CCCCCN(C3=O)[C@@H](Cc3ccc(F)cc3)C(=O)N(C)CC(=O)N[C@@H](CCc3cc(F)c(C(F)(F)F)c(F)c3)C(=O)N2C1 [PP1155]	0.15 nM	B (a compound having 3 or more and less than 10 is denoted as B)	B (a compound having 3 or more and less than 10 is denoted as B)	73.1 nM
CCO[C@@H]1C[C@H]2C(=O)NC3(CCC3)C(=O)N(C)[C@@H](C3CCCC3)C(=O)N(C)[C@H](C(=O)N(C)C)CC(=O)N(C)[C@@H](Cc3cccc(C#N)c3)C(=O)N[C@@H]([C@@H](C)CC)C(=O)N(C)CC(=O)N(C)[C@H]3CCCCCN(C3=O)[C@@H](Cc3ccc(F)cc3)C(=O)N(C)CC(=O)N[C@@H](CCc3cc(F)c(C(F)(F)F)c(F)c3)C(=O)N2C1 [PP1156]	0.063 nM	B (a compound having 3 or more and less than 10 is denoted as B)	B (a compound having 3 or more and less than 10 is denoted as B)	33.7 nM
CCO[C@@H]1C[C@H]2C(=O)NC3(CCC3)C(=O)N(C)[C@@H](C3CCCC3)C(=O)N(C)[C@H](C(=O)N(C)C)CC(=O)N(C)[C@@H](Cc3ccc(C#N)cc3)C(=O)N[C@@H]([C@@H](C)CC)C(=O)N(C)CC(=O)N(C)[C@H]3CCCCCN(C3=O)[C@@H](Cc3ccc(F)cc3)C(=O)N(C)CC(=O)N[C@@H](CCc3cc(F)c(C(F)(F)F)c(F)c3)C(=O)N2C1 [PP1157]	0.061 nM	B (a compound having 3 or more and less than 10 is denoted as B)	B (a compound having 3 or more and less than 10 is denoted as B)	30.3 nM
CCO[C@@H]1C[C@H]2C(=O)NC3(CCC3)C(=O)N(C)[C@@H](C3CCCC3)C(=O)N(C)[C@H](C(=O)N(C)C)CC(=O)N(C)[C@@H](Cc3ccc(Cl)c(Cl)c3)C(=O)N[C@@H]([C@@H](C)CC)C(=O)N(C)CC(=O)N(C)[C@H]3CCCCCN(C3=O)[C@@H](Cc3ccc(F)cc3)C(=O)N(C)CC(=O)N[C@@H](CCc3cc(F)c(C(F)(F)F)c(F)c3)C(=O)N2C1 [PP1158]	0.18 nM	B (a compound having 3 or more and less than 10 is denoted as B)	B (a compound having 3 or more and less than 10 is denoted as B)	57.5 nM
CCCO[C@@H]1C[C@H]2C(=O)NC3(CCC3)C(=O)N(C)[C@@H](C3CCCC3)C(=O)N(C)[C@H](C(=O)N3CCOCC3)CC(=O)N(C)[C@@H](CC(C)C)C(=O)N[C@@H]([C@@H](C)CC)C(=O)N(C)CC(=O)N(C)[C@H]3CCCCN(C3=O)[C@@H](Cc3ccc(C(F)(F)F)cc3)C(=O)N(C)CC(=O)N[C@@H](CCc3cc(F)c(C(F)(F)F)c(F)c3)C(=O)N2C1 [PP1159]	0.036 nM	C (A compound having a KD ratio of 0.1 or more and less than 3 is denoted as C)	B (a compound having 3 or more and less than 10 is denoted as B)	13 nM
CC[C@H](C)[C@@H]1NC(=O)[C@H](CC(C)C)N(C)C(=O)C[C@@H](C(=O)N2CCOCC2)N(C)C(=O)[C@H](C2CCCC2)N(C)C(=O)C2(CCC2)NC(=O)[C@@H]2C[C@@H](OCC(C)C)CN2C(=O)[C@H](CCc2cc(F)c(C(F)(F)F)c(F)c2)NC(=O)CN(C)C(=O)[C@H](Cc2ccc(C(F)(F)F)cc2)N2CCCC[C@@H](C2=O)N(C)C(=O)CN(C)C1=O [PP1160]	0.032 nM	B (a compound having 3 or more and less than 10 is denoted as B)	B (a compound having 3 or more and less than 10 is denoted as B)	18.4 nM
CCO[C@@H]1C[C@H]2C(=O)NC3(CCC3)C(=O)N(C)[C@@H](C3CCCC3)C(=O)N(C)[C@H](C(=O)N3CCOCC3)CC(=O)N(C)[C@@H](Cc3ccsc3)C(=O)N[C@@H]([C@@H](C)CC)C(=O)N(C)CC(=O)N(C)[C@H]3CCCCCN(C3=O)[C@@H](Cc3ccc(C(F)(F)F)cc3)C(=O)N(C)CC(=O)N[C@@H](CCc3cc(F)c(C(F)(F)F)c(F)c3)C(=O)N2C1 [PP1164]	0.52 nM	B (a compound having 3 or more and less than 10 is denoted as B)	B (a compound having 3 or more and less than 10 is denoted as B)	95.9 nM
CCO[C@@H]1C[C@H]2C(=O)NC3(CCC3)C(=O)N(C)[C@@H](C3CCCC3)C(=O)N(C)[C@H](C(=O)N(C)C)CC(=O)N(C)[C@@H](Cc3cccs3)C(=O)N[C@@H]([C@@H](C)CC)C(=O)N(C)CC(=O)N(C)[C@H]3CCCCCN(C3=O)[C@@H](Cc3ccc(C(F)(F)F)cc3)C(=O)N(C)CC(=O)N[C@@H](CCc3cc(F)c(C(F)(F)F)c(F)c3)C(=O)N2C1 [PP1169]	0.32 nM	B (a compound having 3 or more and less than 10 is denoted as B)	B (a compound having 3 or more and less than 10 is denoted as B)	74 nM
CCO[C@@H]1C[C@H]2C(=O)NC3(CCC3)C(=O)N(C)[C@@H](C3CCCC3)C(=O)N(C)[C@H](C(=O)N(C)C)CC(=O)N(C)[C@@H](Cc3ccccc3C#N)C(=O)N[C@@H]([C@@H](C)CC)C(=O)N(C)CC(=O)N(C)[C@H]3CCCCCN(C3=O)[C@@H](Cc3ccc(C(F)(F)F)cc3)C(=O)N(C)CC(=O)N[C@@H](CCc3cc(F)c(C(F)(F)F)c(F)c3)C(=O)N2C1 [PP1171]	0.69 nM	B (a compound having 3 or more and less than 10 is denoted as B)	B (a compound having 3 or more and less than 10 is denoted as B)	118 nM

— patent EP4603105A1, “PHARMACEUTICAL COMPOSITION CONTAINING CYCLIC COMPOUND HAVING SELECTIVE KRAS INHIBITORY EFFECT AGAINST HRAS AND NRAS” (CHUGAI SEIYAKU KABUSHIKI KAISHA, priority 2022, dated 2024)
